In US11560385B2, “Proteasome activity enhancing compounds” (Proteostasis Therapeutics, Inc., priority 2018, dated 2023):

What follows are compounds tested against USP14 (Homo sapiens (Human), UniProt P54578) (assay: Usp14 inhibition assay (Example 57B, B-series compounds)). Conditions: IC50 class; average value from a minimum of two experimental determinations.
Chain of USP14 (P54578 whole entry, looked up): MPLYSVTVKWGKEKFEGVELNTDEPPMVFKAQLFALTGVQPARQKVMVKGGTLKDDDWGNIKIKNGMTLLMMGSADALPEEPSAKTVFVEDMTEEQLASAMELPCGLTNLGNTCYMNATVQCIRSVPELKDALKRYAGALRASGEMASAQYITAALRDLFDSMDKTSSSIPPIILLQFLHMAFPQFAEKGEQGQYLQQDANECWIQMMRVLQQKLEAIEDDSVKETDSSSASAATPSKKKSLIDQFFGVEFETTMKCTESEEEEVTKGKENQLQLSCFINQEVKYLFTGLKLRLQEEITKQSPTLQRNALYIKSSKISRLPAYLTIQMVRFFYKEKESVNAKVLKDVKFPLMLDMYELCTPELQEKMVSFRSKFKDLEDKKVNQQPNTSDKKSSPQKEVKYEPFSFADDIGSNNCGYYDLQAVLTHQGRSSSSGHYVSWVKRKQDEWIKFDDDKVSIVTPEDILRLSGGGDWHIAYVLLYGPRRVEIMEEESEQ
Assay type: biochemical
Excerpt: Example 57B: Usp14 Inhibition Assay
The IC50 values in the Table below represent the average value from a minimum of two experimental determinations.
Work on `Cc1cc(C(=O)CN2[C@@H]3CC[C@H]2[C@@H](C)C3)c(C)n1-c1ccc(C#N)cc1` (racemic) [Example 100B, (±)-4-(2,5-Dimethyl-3-(2-((1S,2S,4R)-2-methyl-7-azabicyclo[2.2.1]heptan-7-yl)acetyl)-1H-pyrrol-1-yl)benzonitrile] yielded an IC50 of over 500 nM.
For `Cc1c(C(=O)CN2C3CCC2C(O)C3)cc([C@@H]2C[C@H]2C)n1-c1ccc(C#N)cc1` (mixture of isomers) [Example 142B, (±)-4-(3-(2-((1S,2R,4R)-2-Hydroxy-7-azabicyclo[2.2.1]heptan-7-yl)acetyl)-2-methyl-5-(2-methylcyclopropyl)-1H-pyrrol-1-yl)benzonitrile], the IC50 was 50 to 500 nM.
For `Cc1c(F)c(C(=O)CN2[C@@H]3CC[C@H]2[C@@H](C(F)(F)F)C3)c(C)n1-c1ccc(C#N)cc1` (racemic) [Example 103B, (±)-4-(3-Fluoro-2,5-dimethyl-4-(2-((1R,2R,4S)-2-(trifluoromethyl)-7-azabicyclo[2.2.1]heptan-7-yl)acetyl)-1H-pyrrol-1-yl)benzonitrile], the IC50 was over 500 nM.
`Cc1c(C(=O)CN2C3CCC2[C@H](O)C3)cc(C(C)CCS(C)(=O)=O)n1-c1ccc(C#N)cc1` (mixture of isomers) [Example 11B, (±)-4-(3-(2-((2R)-2-Hydroxy-7-azabicyclo[2.2.1]heptan-7-yl)acetyl)-2-methyl-5-(4-(methylsulfonyl)butan-2-yl)-1H-pyrrol-1-yl)benzonitrile] was tested, and the IC50 was over 500 nM.
With `Cc1c(C(=O)CN2[C@@H]3CC[C@@H]2CC(O)C3)cc(CCCCS(C)(=O)=O)n1-c1ccc(C#N)cc1` (stereo partly drawn) [Example 7B, 4-(3-(2-((1R,3r,5S)-3-Hydroxy-8-azabicyclo[3.2.1]octan-8-yl)acetyl)-2-methyl-5-(4-(methylsulfonyl)butyl)-1H-pyrrol-1-yl)benzonitrile] the IC50 was under 50 nM.
For `Cc1c(C(=O)CN2[C@@H]3CC[C@H]2[C@@H](O)C3)cc(CCCCC2CCOCC2)n1-c1ccc(C#N)cc1` (racemic) [Example 14B, (±)-4-(3-(2-((1S,2S,4R)-2-Hydroxy-7-azabicyclo[2.2.1]heptan-7-yl)acetyl)-2-methyl-5-(4-(tetrahydro-2H-pyran-4-yl)butyl)-1H-pyrrol-1-yl)benzonitrile], the IC50 was under 50 nM.
Work on `Cc1cc(C(=O)CN2[C@@H]3CC[C@H]2[C@H](C)[C@@H]3C)c(C)n1-c1ccc(C#N)cc1` [Example 138B, 4-(3-(2-((1R,2S,3R,4S)-2,3-Dimethyl-7-azabicyclo[2.2.1]heptan-7-yl)acetyl)-2,5-dimethyl-1H-pyrrol-1-yl)benzonitrile] yielded an IC50 of over 500 nM.
With `CSCCCCc1cc(C(=O)CN2C3CCC2[C@@H](O)C3)c(C)n1-c1ccc(C#N)cc1` (mixture of isomers) [Example 37B, (±)-4-(3-(2-((2R)-2-Hydroxy-7-azabicyclo[2.2.1]heptan-7-yl)acetyl)-2-methyl-5-(4-(methylthio)butyl)-1H-pyrrol-1-yl)benzonitrile] the IC50 was under 50 nM.
`Cc1c(C(=O)CN2C3CCC2[C@@H](O)C3)cc(CCCn2cccn2)n1-c1ccc(C#N)cc1` (mixture of isomers) [Example 24B, (±)-4-(5-(3-(1H-Pyrazol-1-yl)propyl)-3-(2-((2R)-2-hydroxy-7-azabicyclo[2.2.1]heptan-7-yl)acetyl)-2-methyl-1H-pyrrol-1-yl)benzonitrile] was tested, and the IC50 was 50 to 500 nM.
Compound `Cc1c(C(=O)CN2C3CCC2CC3)cc(/C=C\CCS(C)(=O)=O)n1-c1ccc(C#N)cc1` [Example 26B] has an IC50 of under 50 nM.
In the case of `Cc1c(C(=O)CN2[C@@H]3CC[C@H]2[C@@H](C)C3)cc(CC2COC2)n1-c1ccc(C#N)cc1` (racemic) [Example 53B, (±)-4-(2-Methyl-3-(2-((1R,2R,4S)-2-methyl-7-azabicyclo[2.2.1]heptan-7-yl)acetyl)-5-(oxetan-3-ylmethyl)-1H-pyrrol-1-yl)benzonitrile], the IC50 is reported as under 50 nM.
Work on `Cc1c(C(=O)CN2C3CCC2[C@@H](O)C3)cc(C2CCCC2)n1-c1ccc(C#N)cc1` (mixture of isomers) [Example 110B, (±)-4-(5-Cyclopentyl-3-(2-((2R)-2-hydroxy-7-azabicyclo[2.2.1]heptan-7-yl)acetyl)-2-methyl-1H-pyrrol-1-yl)benzonitrile] yielded an IC50 of 50 to 500 nM.
`Cc1c(C(=O)CN2C3CCC2CC3)cc(/C=C/CCS(C)(=O)=O)n1-c1ccc(Cl)cc1` [Example 34B, (E)-2-(7-Azabicyclo[2.2.1]heptan-7-yl)-1-(1-(4-chlorophenyl)-2-methyl-5-(4-(methylsulfonyl)but-1-en-1-yl)-1H-pyrrol-3-yl)ethan-1-one] showed an IC50 of under 50 nM.
Compound `Cc1c(C(=O)CN2[C@@H]3CC[C@@H]2[C@@H](O)C3)cc(CC2CCOCC2)n1-c1ccc(C#N)cc1` (racemic) [Example 44B, (±)-4-(3-(2-((1R,2S,4R)-2-Hydroxy-7-azabicyclo[2.2.1]heptan-7-yl)acetyl)-2-methyl-5-((tetrahydro-2H-pyran-4-yl)methyl)-1H-pyrrol-1-yl)benzonitrile] has an IC50 of under 50 nM.
`Cc1c(F)c(C(=O)CN2[C@@H]3CC[C@H]2[C@@H](C)C3)c(C)n1-c1ccc(C#N)cc1` (racemic) [Example 101B, (±)-4-(3-Fluoro-2,5-dimethyl-4-(2-((1S,2S,4R)-2-methyl-7-azabicyclo[2.2.1]heptan-7-yl)acetyl)-1H-pyrrol-1-yl)benzonitrile] gave an IC50 of 50 to 500 nM.
Compound `Cc1c(C(=O)CN2C3CCC2[C@@H](O)C3)cc(C2CC2)n1-c1ccc(C#N)cc1` (mixture of isomers) [Example 98B, (±)-4-(5-Cyclopropyl-3-(2-((2R)-2-hydroxy-7-azabicyclo[2.2.1]heptan-7-yl)acetyl)-2-methyl-1H-pyrrol-1-yl)benzonitrile] has an IC50 of 50 to 500 nM.
`Cc1c(C(=O)CN2C3CCC2[C@@H](O)C3)cc(CCC2CCOCC2)n1-c1ccc(C#N)cc1` (mixture of isomers) [Example 9B, (±)-4-(3-(2-((2R)-2-Hydroxy-7-azabicyclo[2.2.1]heptan-7-yl)acetyl)-2-methyl-5-(2-(tetrahydro-2H-pyran-4-yl)ethyl)-1H-pyrrol-1-yl)benzonitrile] showed an IC50 of under 50 nM.
In the case of `Cc1c(C(=O)CN2C3CCC2C(O)C3)cc([C@@H]2C[C@H]2CCC#N)n1-c1ccc(C#N)cc1` (mixture of isomers) [Example 17B, (±)-4-(5-((1R,2R)-2-(2-Cyanoethyl)cyclopropyl)-3-(2-((2R)-2-hydroxy-7-azabicyclo[2.2.1]heptan-7-yl)acetyl)-2-methyl-1H-pyrrol-1-yl)benzonitrile], the IC50 is reported as 50 to 500 nM.
`Cc1c(C(=O)CN2C3CCC2CC3)cc(C#N)n1-c1ccc(C#N)cc1` [Example 137B, 4-(2-(7-Azabicyclo[2.2.1]heptan-7-yl)acetyl)-1-(4-cyanophenyl)-5-methyl-1H-pyrrole-2-carbonitrile] gave an IC50 of under 50 nM.
`Cc1cc(C(=O)CN2C3CCC2(C)CC3)c(C)n1-c1ccc(C#N)cc1` [Example 125B, 4-(2,5-Dimethyl-3-(2-(1-methyl-7-azabicyclo[2.2.1]heptan-7-yl)acetyl)-1H-pyrrol-1-yl)benzonitrile] gave an IC50 of 50 to 500 nM.
`Cc1cc(C(=O)CN2C3CCC2[C@@H](O)C3)c(C)n1-c1ccc(C#N)cc1` (mixture of isomers) [Example 64B, (±)-4-(3-(2-((2R)-2-Hydroxy-7-azabicyclo[2.2.1]heptan-7-yl)acetyl)-2,5-dimethyl-1H-pyrrol-1-yl)benzonitrile] showed an IC50 of 50 to 500 nM.
For `Cc1cc(C(=O)CN2[C@@H]3CC[C@H]2[C@@H](C)[C@H]3C)c(C)n1-c1ccc(C#N)cc1` [Example 124B, 4-(3-(2-((1R,2R,3S,4S)-2,3-Dimethyl-7-azabicyclo[2.2.1]heptan-7-yl)acetyl)-2,5-dimethyl-1H-pyrrol-1-yl)benzonitrile], the IC50 was 50 to 500 nM.
In the case of `Cc1cc(C(=O)CN2[C@@H]3CC[C@H]2[C@](O)(C(F)(F)F)C3)c(C)n1-c1ccc(C#N)cc1` (racemic) [Example 73B, (±)-4-(3-(2-((1R,2R,4S)-2-Hydroxy-2-(trifluoromethyl)-7-azabicyclo[2.2.1]heptan-7-yl)acetyl)-2,5-dimethyl-1H-pyrrol-1-yl)benzonitrile], the IC50 is reported as over 500 nM.
With `Cc1c(C(=O)CN2C3CCC2[C@@H](O)C3)cc(/C=C/CCC#N)n1-c1ccc(C#N)cc1` (mixture of isomers) [Example 20B, (±)-4-(5-((E)-4-Cyanobut-1-en-1-yl)-3-(2-((2R)-2-hydroxy-7-azabicyclo[2.2.1]heptan-7-yl)acetyl)-2-methyl-1H-pyrrol-1-yl)benzonitrile] the IC50 was under 50 nM.
Work on `Cc1c(C(=O)CN2C3CCC2[C@@H](O)C3)c(C(F)(F)F)c(C)n1-c1ccc(C#N)cc1` (mixture of isomers) [Example 79B, (±)-4-(3-(2-((2R)-2-Hydroxy-7-azabicyclo[2.2.1]heptan-7-yl)acetyl)-2,5-dimethyl-4-(trifluoromethyl)-1H-pyrrol-1-yl)benzonitrile] yielded an IC50 of over 500 nM.
`Cc1c(C(=O)CN2C3CCC2C(O)C3)cc([C@@H](C)C2CCC2)n1-c1ccc(C#N)cc1` (mixture of isomers) [Example 150B, (±)-4-(5-((S)-1-Cyclobutylethyl)-3-(2-((2R)-2-hydroxy-7-azabicyclo[2.2.1]heptan-7-yl)acetyl)-2-methyl-1H-pyrrol-1-yl)benzonitrile] showed an IC50 of 50 to 500 nM.
For `Cc1c(C(=O)CN2[C@@H]3CC[C@@H]2[C@@H](O)C3)cc(/C=C/CN)n1-c1ccc(C#N)cc1` (racemic) [Example 156B, (±)-4-(5-((E)-3-Aminoprop-1-en-1-yl)-3-(2-((1S,2R,4S)-2-hydroxy-7-azabicyclo[2.2.1]heptan-7-yl)acetyl)-2-methyl-1H-pyrrol-1-yl)benzonitrile], the IC50 was under 50 nM.
`Cc1c(F)c(C(=O)CN2C3CCC2[C@@H](O)C3)c(C)n1-c1ccc(C#N)c(F)c1` (mixture of isomers) [Example 120B, (±)-2-Fluoro-4-(3-fluoro-4-(2-((2R)-2-hydroxy-7-azabicyclo[2.2.1]heptan-7-yl)acetyl)-2,5-dimethyl-1H-pyrrol-1-yl)benzonitrile] showed an IC50 of under 50 nM.
`CSCCCCCc1cc(C(=O)CN2[C@@H]3CC[C@H]2[C@@H](O)C3)c(C)n1-c1ccc(C#N)cc1` (racemic) [Example 38B, (±)-4-(3-(2-((1R,2R,4S)-2-Hydroxy-7-azabicyclo[2.2.1]heptan-7-yl)acetyl)-2-methyl-5-(5-(methylthio)pentyl)-1H-pyrrol-1-yl)benzonitrile] was tested, and the IC50 was under 50 nM.
With `Cc1cc(C(=O)CN2C3CC4CC(C3)CC2C4)c(C)n1-c1ccc(C#N)cc1` [Example 80B, 4-(3-(2-((5r,7r)-2-Azaadamantan-2-yl)acetyl)-2,5-dimethyl-1H-pyrrol-1-yl)benzonitrile] the IC50 was under 50 nM.
